One series relates to MCF-7. Kind of series: Inhibition of proliferation / cytotoxicity, MCF-7. Conditions: MCF7; MCF-7 human breast cancer cell line; read-out: Tumor Cell Line (IC50, nM) MCF-7. It is filed as cell-based. On the procedure: (§1) The biological activity of compounds of this invention was evaluated by measuring their inhibitory effect on the proliferation of various tumor cell lines. MCF-7, A549, and SKOV-3 are human breast, lung, and ovary cancer cell lines, respectively. NCI/ADR is a multi-drug resistant breast cancer cell line. CCRF-CEM and CCRF-CEM/PTX are human leukemia cell lines, the latter being a paclitaxel-resistant subline. LNCaP is a prostate cancer cell line.

Another series relates to NCI/ADR. Put plainly: Inhibition of proliferation / cytotoxicity, NCI/ADR. It is filed as cell-based. The note with it: Homo sapiens, NCI/ADR-RES; NCI/ADR multi-drug resistant breast cancer cell line; read-out: Tumor Cell Line (IC50, nM) NCI/ADR. On the procedure: as §1
The nature of series [1]: Mouse maximum tolerated dose, single dose intravenous. Type of series: in vivo. Conditions: mice, single dose intravenous administration. On the procedure: The maximum tolerated dose (MTD) in mice, upon single dose intravenous administration was determined for a representative selection of compounds. The data are summarized in Table 4, with comparative data for LMB included.

The next series concerns mammalian cells. The note with it: Hamamoto et al., J. Antibiotics 1983; cited from earlier work.
Another series has as its system A549. Put plainly: Inhibition of proliferation / cytotoxicity, A549. Conditions: A549 human lung cancer cell line; read-out: Tumor Cell Line (IC50, nM) A549. Type of series: cell-based. How it is done: as §1
A further series relates to SKOV-3. Put plainly: Inhibition of proliferation / cytotoxicity, SKOV-3. It is filed as cell-based. The note with it: SK-OV-3; SKOV-3 human ovary cancer cell line; read-out: Tumor Cell Line (IC50, nM) SKOV-3. On the procedure:
as §1

For a further series, the system named is UMUC-3. Put plainly: Cytotoxicity against human bladder cancer cells UMUC-3. Type of series: cell-based. The note with it: UMUC3; UMUC-3 human bladder cancer cells. On the procedure: (§2) Additionally, the cytotoxicity of LMB was determined against two lines of human bladder cancer cells (UMUC-3 and T24).
For series [2] the following is noted: phase 1 trial halted in 1994; cited from earlier work.
A further series deals with T24. Put plainly: Cytotoxicity against human bladder cancer cells T24. The note with it: T-24. Type of series: cell-based. How it is done: as §2
The subject of the next series is CCRF-CEM/PTX. Kind of series: Inhibition of proliferation / cytotoxicity, CCRF-CEM/PTX. It is filed as cell-based. Conditions: CCRF-CEM/PTX paclitaxel-resistant human leukemia subline; read-out: Tumor Cell Line (IC50, nM) CCRF-CEM/PTX. On the procedure: as §1
The subject of the next series is MB 49 cells. Put plainly: Cytotoxicity against MB 49 murine bladder cancer cells. Type of series: cell-based. The note with it: Mus musculus, MB49. An excerpt: Table 5 presents data on the cytotoxicity of LMB and selected compounds of this invention against MB 49 cells, a line of murine bladder cancer cells.
The subject of the next series is K562 cells. Kind of series: Cytotoxicity against Bcr-Abl positive K562 cells. Conditions: Homo sapiens; K562, Bcr-Abl positive CML cell line. It is filed as cell-based. An excerpt:
Data was also obtained for the cytotoxicity of several compounds of this invention against K562, a Bcr-Abl positive CML cell line, as shown in Table 3 with comparative data for LMB included.

The subject of the next series is CCRF-CEM. Put plainly: Inhibition of proliferation / cytotoxicity, CCRF-CEM. Conditions: CCRF-CEM human leukemia cell line; read-out: Tumor Cell Line (IC50, nM) CCRF-CEM. Type of series: cell-based. How it is done: as §1
Another series relates to LNCaP. Kind of series: Inhibition of proliferation / cytotoxicity, LNCaP. It is filed as cell-based. The note with it: Homo sapiens; LNCaP prostate cancer cell line; read-out: Tumor Cell Line (IC50, nM) LNCaP. How it is done: as §1

Consider one molecule from patent US7655808B2, “Leptomycin compounds” (priority 2004, dated 2010).

Consider `CCC(=C/[C@H](C)C/C=C/C(C)=C/[C@@H](C)C(=O)[C@@H](C)[C@H](O)[C@@H](C)C/C(C)=C/C(=O)O)/C=C/[C@@H]1OC(=O)C=C[C@@H]1C` [LMB, Leptomycin B, reference compound], for which the IC50 in the series with MCF-7 was determined as 0.29 nM; in the series on NCI/ADR, 1 nM; with A549 it was 0.3 nM; in the series on SKOV-3, 1.5 nM; in the series on CCRF-CEM/PTX it was 0.41 nM; in the series on MB 49 cells it was 1800 pM. In addition, the IC50 stood at 600 pM in the series with K562 cells, 0.65 nM in the series with CCRF-CEM and 0.3 nM in the series on LNCaP. Moreover, the “Mouse MTD” value in [1] was 2.5 mg/kg. Also, the “cytotoxicity towards mammalian cells” value in the series with mammalian cells was “remarkable cytotoxicity”. Moreover, the figures for the EC50 in the series with UMUC-3 and in the series with T24 were 330 pM and 1200 pM, respectively. In addition, the “toxicity in phase 1 trial” value in series [2] is “extreme toxicity”.
